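These data come from cells grown in 96-well plates and exposed to compound for 48 hours at five concentrations. TGI: concentration producing complete growth inhibition.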
Assays:
Assay in all cases: DTP human tumour cell line panel, 48 h
NCI-H460 lung = tested on: NCI-H460 lung
SN12C renal = tested on: SN12C renal
HOP-62 NSCLC = tested on: HOP-62 NSCLC
LOX IMVI melanoma = tested on: LOX IMVI melanoma
SF-268 CNS = tested on: SF-268 CNS
SNB-75 CNS = tested on: SNB-75 CNS
OVCAR-3 ovarian = tested on: OVCAR-3 ovarian
UO-31 renal = tested on: UO-31 renal
M14 melanoma = tested on: M14 melanoma
SW-620 colon = tested on: SW-620 colon
RXF 393 renal = tested on: RXF 393 renal
A549 NSCLC = tested on: A549 NSCLC
HT29 colon = tested on: HT29 colon
MDA-MB-435 = tested on: MDA-MB-435
SNB-19 CNS = tested on: SNB-19 CNS
MDA-MB-231 breast = tested on: MDA-MB-231 breast
OVCAR-5 ovarian = tested on: OVCAR-5 ovarian
SF-295 CNS = tested on: SF-295 CNS
NCI-H522 lung = tested on: NCI-H522 lung
DU-145 prostate = tested on: DU-145 prostate
NCI/ADR-RES ovarian = tested on: NCI/ADR-RES ovarian
EKVX NSCLC = tested on: EKVX NSCLC
TK-10 renal = tested on: TK-10 renal
786-0 renal = tested on: 786-0 renal
CAKI-1 renal = tested on: CAKI-1 renal
NCI-H226 lung = tested on: NCI-H226 lung
A498 renal = tested on: A498 renal
SK-MEL-2 melanoma = tested on: SK-MEL-2 melanoma
SR leukemia = tested on: SR leukemia
IGROV1 ovarian = tested on: IGROV1 ovarian
U251 CNS = tested on: U251 CNS
SK-MEL-28 melanoma = tested on: SK-MEL-28 melanoma
OVCAR-4 ovarian = tested on: OVCAR-4 ovarian
HCC-2998 colon = tested on: HCC-2998 colon
SK-OV-3 ovarian = tested on: SK-OV-3 ovarian
BT-549 breast = tested on: BT-549 breast
HOP-92 NSCLC = tested on: HOP-92 NSCLC
MCF7 breast = tested on: MCF7 breast
SF-539 CNS = tested on: SF-539 CNS
K-562 leukemia = tested on: K-562 leukemia
HCT-15 colon = tested on: HCT-15 colon
HS 578T breast = tested on: HS 578T breast
UACC-62 melanoma = tested on: UACC-62 melanoma
MALME-3M melanoma = tested on: MALME-3M melanoma
HCT-116 colon = tested on: HCT-116 colon
SK-MEL-5 melanoma = tested on: SK-MEL-5 melanoma
MDA-N = tested on: MDA-N
PC-3 prostate = tested on: PC-3 prostate
COLO 205 colon = tested on: COLO 205 colon
OVCAR-8 ovarian = tested on: OVCAR-8 ovarian
NCI-H23 lung = tested on: NCI-H23 lung
ACHN renal = tested on: ACHN renal
UACC-257 melanoma = tested on: UACC-257 melanoma
T-47D breast = tested on: T-47D breast
KM12 colon = tested on: KM12 colon
MOLT-4 leukemia = tested on: MOLT-4 leukemia
HL-60(TB) leukemia = tested on: HL-60(TB) leukemia
CCRF-CEM leukemia = tested on: CCRF-CEM leukemia

Measured: TGI

O=C1NC2=NN=C(c3ccc(Br)cc3)CN2NC12c1ccccc1-c1ccccc12
not listed: T-47D breast | KM12 colon | MOLT-4 leukemia | HL-60(TB) leukemia | CCRF-CEM leukemia
> 100 µM: all other assays above

CCOC(=O)n1c2ccccc2c(=O)n1CCO
not listed: LOX IMVI melanoma | MDA-MB-435 | HOP-92 NSCLC
> 100 µM: all other assays above

Source: PubChem BioAssay (NCI)
